According to patent publication US8354522B2, “Immunostimulatory oligoribonucleotides” (Coley Pharmaceutical GmbH, priority 2005, dated 2013):
Read-outs that look alike come from different tables or passages of the source.

Key:
[1] = tested on: isolated pDC; assay: IFN-alpha production upon isolated pDC stimulation; format: cell-based, human; conditions: 0.5 μM ORN complexed to 10 μg/ml DOTAP, 16 h
Experimental: FIG. 2 is a set of bar graphs depicting ORN induced cytokine production upon isolated pDC (FIG. 2a), monocytes (FIG. 2b) and mDC (FIG. 2c) stimulation. Cells were stimulated with 0.5 μM ORN complexed to 10 μg/ml DOTAP, 0.5 μM CpG ODN or DOTAP or media alone and IFN-alpha (FIG. 2a), TNF-alpha […] and IL-12p40 (FIG. 2c) were measured.
A similar assay testing different ORN sequences was performed using isolated pDC, monocytes and mDC stimulation. Cells were stimulated with 0.5 μM ORN complexed to 10 μg/ml DOTAP, 0.5 μM CpG ODN or DOTAP or media alone. After 16 h the supernatants were harvested and IFN-alpha, TNF-alpha and IL-12p40 levels were measured by ELISA.

[2] = tested on: Human PBMC; assay: Cytokine production upon human PBMC stimulation (ORN complexed to DOTAP, 16 h, ELISA); format: cell-based; set-up: key to IFN-alpha / TNF-alpha: +: cytokine production; −: no cytokine production; conditions: for IFN-alpha / TNF-alpha: human PBMC stimulated for 16 h, supernatant ELISA; for EC50 / IFN-alpha max activity / TNF-alpha max activity: ORN complexed to DOTAP, 16 h; for EC50: full titration 2 μM to 0.9 nM; for IFN-alpha max activity / TNF-alpha max activity: mean max activity at 0.6 μM, 3-6 blood donors
Experimental: Human peripheral blood mononuclear cells (PBMCs) were isolated from healthy donors, plated, and stimulated in vitro with various test and control immunostimulatory agents for 16 hours. After 16 hours, the supernatants were collected and then analyzed by ELISA assay. N-U-R1-R2,-Containing Oligoribonucleotides were tested complexed to DOTAP and with full titration curves (7 concentrations), starting from 2 μM ORN complexed to 25 μg/ml DOTAP and with 1/3 dilution steps. Also included were certain negative controls, including medium alone and DOTAP (25 μg/ml culture well; “Liposomes”) alone. The control immunostimulatory agents included the imidazoquinoline R-848 (2 μM with 1/3 dilution steps and 7 concentrations) the reported ligand for TLR7, ORN having TLR8 motifs such as AU and AUU sequences (SEQ ID NO:13-SEQ ID NO:15) ORN having TLR7/8 motifs such as CU, GU and GUU sequences (SEQ ID NO:19-SEQ ID NO:23).
Human PBMC were stimulated with ORN complexed to DOTAP. After 16 hours supernatants were harvested and TNF-alpha and IFN-alpha levels were measured. Mean/Max activities at 0.6 μM of 3-6 blood donors and two individual experiments were determined. […] TLR8 and TLR7/8 ORN are divided by a red line.
Human PBMC were stimulated with ORN complexed to DOTAP. After 16 hours supernatants were harvested and IFN-alpha levels were measured. Mean/Max activities at 0.6 μM and EC50 of full titration curves (range: 2 μM to 0.9 nM) of 3-6 blood donors and two individual experiments were determined. […] Low EC50/high Max activity represents TLR7/8 ORN (FIG. 5a) whereas high EC50 and low Max activity represents TLR8 ORN (FIG. 5b).
The ORN sequences listed in Table 1 were tested for IFN-alpha and TNF-alpha production upon human PBMC stimulation. Human PBMC were stimulated for 16 h with the indicated ORN, and supernatants were harvested and cytokine production measured by ELISA. Table 2 summarizes the min/max activity and EC50 of ORN for IFN-alpha and TNF-alpha production.

[3] = tested on: Bovine PBMC; assay: Cytokine production by bovine PBMC (48 hours, ELISA); format: cell-based; conditions: 10 μg/ml (H.D.) and 2.5 μg/ml (L.D.)
Experimental: FIG. 11 is a set of bar graphs showing differences between TLR8 ORN (SEQ ID NO:13) and TLR7/8 ORN (SEQ ID NO:21). SEQ ID NO:5 ORN was used as a control. Bovine PBMC were incubated with either 10 μg/ml ORN (HD) or 2.5 μg/ml ORN (LD) for 48 hours. Supernatants were collected and analyzed by ELISA. FIGS. 11a-c show the level of IL-12, IFN-γ, and TNF-alpha, respectively.
The assay was repeated with a TLR8 ORN (SEQ ID NO:13), a TLR 7/8 ORN (SEQ ID NO:21) and a control ORN (SEQ ID NO:5) (Table 3) at both a high dose (H.D., 10 μg/ml) and a low dose (L.D., 2.5 μg/ml).

[4] = human PBMC, read-out: IFN-alpha EC50
[5] = human PBMC, read-out: TNF-alpha EC50

Substance	IFN-alpha [2]	TNF-alpha [2]	also measured
A*U*A*U*A*U*A*U*A*U*A*U*A*U*A*U*A*U*A*U (AUAUAUAUAUAUAUAUAUAU; chemistry not fully specified) [SEQ ID NO: 12]	−	+	IFN-alpha production upon pDC stimulation (in words) [1]: no IFN-alpha cytokine production; IFN-alpha production upon PBMC stimulation (in words) ([2]; human PBMC): no IFN-alpha cytokine production
C*C*G*A*G*C*C*G*C*U*A*U*U*C*C*C (CCGAGCCGCUAUUCCC; listed as RNA, chemistry not fully specified) [SEQ ID NO: 51]			EC50 [2, 4]: 582 nM; EC50 [2, 5]: 125 nM; IFN-alpha max activity ([2]; human PBMC): 2615 pg/mL; TNF-alpha max activity ([2]; human PBMC): 23325 pg/mL
C*C*G*A*G*C*C*G*C*U*U*A*A*C*C*C (CCGAGCCGCUUAACCC; listed as RNA, chemistry not fully specified) [SEQ ID NO: 49]			EC50 [2, 4]: 375 nM; EC50 [2, 5]: 350 nM; IFN-alpha max activity ([2]; human PBMC): 3367 pg/mL; TNF-alpha max activity ([2]; human PBMC): 18039 pg/mL
C*C*G*A*G*C*C*G*C*U*U*A*C*C*C*C (CCGAGCCGCUUACCCC; listed as RNA, chemistry not fully specified) [SEQ ID NO: 53]			EC50 [2, 4]: 244 nM; EC50 [2, 5]: 952 nM; IFN-alpha max activity ([2]; human PBMC): 3091 pg/mL; TNF-alpha max activity ([2]; human PBMC): 14623 pg/mL
C*C*G*U*C*U*G*U*U*G*U*G*U*G*A*C*U*C (CCGUCUGUUGUGUGACUC; listed as RNA, chemistry not fully specified) [SEQ ID NO: 5, reference compound]			IFN-γ production [3]: stimulated production of IFN-γ
C*U*A*C*U*A*C*U*A*C*U*A*C*U*A*C*U*A*C*U (CUACUACUACUACUACUACU; listed as RNA, chemistry not fully specified) [SEQ ID NO: 24]	−	+	IFN-alpha production upon PBMC stimulation (in words) ([2]; human PBMC): no IFN-alpha production; TNF-alpha production upon PBMC stimulation (in words) ([2]; human PBMC): TNF-alpha inducing
C*U*A*G*G*C*A*C (CUAGGCAC; phosphorothioate linkages, chemistry not fully specified) [SEQ ID NO: 3]	−	+	
C*U*C*U*C*U*C*U*C*U*C*U*C*U*C*U*C*U*C*U (CUCUCUCUCUCUCUCUCUCU; listed as RNA, chemistry not fully specified) [SEQ ID NO: 19]	+	+	
G*C*C*A*C*C*G*A*G*C*C*G*A*A*U*A*U*A*C*C (GCCACCGAGCCGAAUAUACC; listed as RNA, chemistry not fully specified) [SEQ ID NO: 11]	−	+	
G*U*A*G*G*C*A*C (GUAGGCAC; phosphorothioate linkages, chemistry not fully specified) [SEQ ID NO: 1]	−	+	
G*U*A*G*U*A*G (GUAGUAG; phosphorothioate linkages, chemistry not fully specified) [SEQ ID NO: 34]	+	+	
G*U*A*G*U*A*G*U*A*G*U*A*G*U*A*G*U*A*G*U (GUAGUAGUAGUAGUAGUAGU; listed as RNA, chemistry not fully specified) [SEQ ID NO: 25]	+	+	
G*U*C*G*U*C*G*U*C*G*U*C*G*U*C*G*U*C*G*U (GUCGUCGUCGUCGUCGUCGU; listed as RNA, chemistry not fully specified) [SEQ ID NO: 26]	+	+	
G*U*G*U*G*U*G*U*G*U*G*U*G*U*G*U*G*U*G*U (GUGUGUGUGUGUGUGUGUGU; listed as RNA, chemistry not fully specified) [SEQ ID NO: 20]	+	+	
I*U*A*I*U*A*I*U*A*I*U*A*I*U*A*I*U*A*I*U (NUANUANUANUANUANUANU; inosine, phosphorothioate linkages, chemistry not fully specified) [SEQ ID NO: 27]	+	+	
U*A*U*A*U*A*U (UAUAUAU; phosphorothioate linkages, chemistry not fully specified) [SEQ ID NO: 33]	−	+	
U*C*U*C*U*C*U (UCUCUCU; phosphorothioate linkages, chemistry not fully specified) [SEQ ID NO: 32]	+	+	
U*G*U*G*U*G*U (UGUGUGU; phosphorothioate linkages, chemistry not fully specified) [SEQ ID NO: 31]	+	+	
U*U*A*G*G*C*A*C (UUAGGCAC; phosphorothioate linkages, chemistry not fully specified) [SEQ ID NO: 2]	−	+	
U*U*A*U*U*A*U (UUAUUAU; phosphorothioate linkages, chemistry not fully specified) [SEQ ID NO: 30]	−	+	
U*U*G*U*U*G*U (UUGUUGU; phosphorothioate linkages, chemistry not fully specified) [SEQ ID NO: 29]	+	+	
U*U*I*U*U*I*U*U*I*U*U*I*U*U*I*U*U*I*U*U (UUNUUNUUNUUNUUNUUNUU; inosine, phosphorothioate linkages, chemistry not fully specified) [SEQ ID NO: 28]	+	+	
U*U*U*A*U*U*U*A*U*U*U*A*U*U*U*A*U*U*U*A (UUUAUUUAUUUAUUUAUUUA; chemistry not fully specified) [SEQ ID NO: 14]	+	+	IFN-alpha production upon PBMC stimulation (in words) ([2]; human PBMC): induced IFN-alpha production
U*U*U*G*U*U*U*G*U*U*U*G*U*U*U*G*U*U*U*G (UUUGUUUGUUUGUUUGUUUG; listed as RNA, chemistry not fully specified) [SEQ ID NO: 22]	+	+	
U*U*U*U*A*U*U*U*U*A*U*U*U*U*A*U*U*U*U*A (UUUUAUUUUAUUUUAUUUUA; chemistry not fully specified) [SEQ ID NO: 15]	+	+	IFN-alpha production upon PBMC stimulation (in words) ([2]; human PBMC): induced IFN-alpha production
U*U*U*U*G*U*U*U*U*G*U*U*U*U*G*U*U*U*U*G (UUUUGUUUUGUUUUGUUUUG; listed as RNA, chemistry not fully specified) [SEQ ID NO: 23]	+	+	
dN*dN*dN*dN*dN*A*U*A*U*A*U*A*U*dN*dN*dN*dN*dN*dN [SEQ ID NO: 9]	−	+	
dN*dN*dN*dN*dN*N*A*U*A*U*N*N*dN*dN*dN*dN*dN*dN [SEQ ID NO: 7]	−	+	
